In ChEMBL document CHEMBL1201862, “PubChem BioAssay data set” (2004):
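Growth conditions: 96-well plates. Treatment: test compound, 48 hours, 5 concentrations. Analysis: linear interpolation between bracketing concentrations; unreached endpoints set to highest concentration. GI50 is the concentration that inhibits growth by half.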 Calls of active or inactive are those of the source. No stated cut-off is given here; in the data, active = GI50 up to about 1.1 µM and inactive = higher.

What was measured:
Experiment in all cases: NCI anticancer screen, dose series, 48 h
[1] = tested on: NCI-H460
[2] = tested on: OVCAR-8
[3] = tested on: K562
[4] = tested on: U-251
[5] = tested on: SK-OV-3
[6] = tested on: RXF 393
[7] = tested on: SK-MEL-2
[8] = tested on: CCRF-CEM
[9] = tested on: SF-295
[10] = tested on: OVCAR-5
[11] = tested on: MOLT-4
[12] = tested on: SK-MEL-5
[13] = tested on: A498
[14] = tested on: SNB-75
[15] = tested on: UO-31
[16] = tested on: IGROV-1
[17] = tested on: NCI/ADR-RES
[18] = tested on: CAKI-1
[19] = tested on: MDA-MB-435
[20] = tested on: ACHN

Measured: GI50

O=C1C=C(C2OC(CO)C(O)C2O)C(=O)N1 (stereo unspecified)
inactive: [1] > 100 µM | [2] > 100 µM | [3] 47.6 µM | [4] > 100 µM | [5] > 100 µM | [6] > 100 µM | [7] > 100 µM | [8] 32.5 µM | [9] > 100 µM | [10] > 100 µM | [11] 45.6 µM | [12] > 100 µM | [13] > 100 µM | [14] > 100 µM | [15] > 100 µM | [16] > 100 µM | [17] > 100 µM

O=C(C[C@H](NC(=O)OCc1ccccc1)C(=O)NC1Cc2ccccc2OC1=O)OCc1ccccc1 (stereo partly specified)
inactive: [1] 41.6 µM | [2] > 100 µM | [3] 15.7 µM | [4] > 100 µM | [5] > 100 µM | [6] > 100 µM | [18] 70 µM | [7] > 100 µM | [8] 17.4 µM | [10] > 100 µM | [19] > 100 µM | [11] > 100 µM | [12] > 100 µM | [13] > 100 µM | [14] > 100 µM | [15] > 100 µM | [16] > 100 µM | [17] > 100 µM

CN(C(=O)C1(C(=O)C=[N+]=[N-])CC1)c1ccccc1
inactive: [1] > 100 µM | [2] > 100 µM | [3] > 100 µM | [4] > 100 µM | [6] > 100 µM | [7] > 100 µM | [8] > 100 µM | [9] > 100 µM | [10] > 100 µM | [19] > 100 µM | [11] > 100 µM | [12] > 100 µM | [14] > 100 µM | [15] > 100 µM | [16] > 100 µM | [20] > 100 µM | [17] > 100 µM

CCOC(=O)NC(C(F)(F)F)(C(F)(F)F)P(=O)(OCC(C)C)OCC(C)C
inactive: [1] 19.2 µM | [2] 5.41 µM | [3] 7.28 µM | [4] 5.98 µM | [5] 13.7 µM | [6] 11.3 µM | [18] 27.9 µM | [7] 14.9 µM | [8] 2.67 µM | [9] 24.8 µM | [10] 18.6 µM | [19] 15.5 µM | [12] 12.1 µM | [13] 41.9 µM | [14] 23.6 µM | [15] 7.35 µM | [16] 10.2 µM | [20] 8.34 µM | [17] 5.05 µM

CCOC(=O)c1csc(NC(=O)CCN2CCCC2)n1
inactive: [1] > 100 µM | [2] > 100 µM | [3] > 100 µM | [4] > 100 µM | [5] > 100 µM | [6] > 100 µM | [18] > 100 µM | [7] > 100 µM | [8] > 100 µM | [9] > 100 µM | [10] > 100 µM | [19] > 100 µM | [11] > 100 µM | [12] > 100 µM | [14] > 100 µM | [15] > 100 µM | [16] > 100 µM | [20] > 100 µM | [17] > 100 µM

CC(=O)OCc1nnn2c1CCC2
inactive: [1] > 100 µM | [2] > 100 µM | [3] > 100 µM | [4] > 100 µM | [5] > 100 µM | [6] > 100 µM | [7] > 100 µM | [8] > 100 µM | [9] > 100 µM | [10] > 100 µM | [11] > 100 µM | [12] > 100 µM | [14] > 100 µM | [15] > 100 µM | [16] > 100 µM | [20] > 100 µM
